Experimental data reported in PubChem BioAssay AID1935 (Broad Institute, 2009).
Inconclusive results are not listed. The source made the active and inactive calls. The rule behind the calls is not given here.

Test system: BJ-TERT-LT-ST fibroblast viability, ATP luminescence
Assay: BJ-TERT-LT-ST fibroblast viability loss – cell-based, RAS-independent, luminescence, dose response (AID 1935)

In the case of `CCc1ccc(/C=C2\SC(=S)N(CCC(=O)NCCCN3CCOCC3)C2=O)cc1`, the EC50 is reported as > 15 µM (inactive).

For `CCc1ccc(/C=C2/SC(=S)N(CCC(=O)NCCCN3CCOCC3)C2=O)cc1`, the EC50 was > 15 µM (inactive).
